Experimental data: patent publication US20090123512A1, “Quorum Sensing Modulators” (priority 2005, published 2009)

Tested on: MW1
Test: Elastase production in culture supernatant, MW1
Type: cell-based, Pseudomonas aeruginosa
Procedure: Elastase activity was measured according to the procedure described by Pearson et al. in J. Bacteriol. 179:5756-67 (1997) and pyocyanin concentration was measured according to the procedure described by Essar et al. in J. Bacteriol. 172:884-900 (1990). Protocols were modified slightly to be consistent with the conditions of transcriptional profiling. Cultures were grown in LB amended with 50 mM MOPS pH 7.0. Mid-log cultures were either subcultured directly (MW1) or washed twice with medium (PAO1) and then subcultured to an absorbance at 600 nm (A600) of 0.01. Cultures (1 mL) were grown in the presence of test compounds in 16 mm tubes at 37° C., 250 rpm.
For elastase activity, cultures were grown for 6 hours. Cells were removed by centrifugation and the culture supernatant filtered through a 0.2 μm filter. A 100 μL volume of filtered supernatant was added to 900 μL of 5 mg/mL Elastin Congo Red (Elastin Products Company; Owensville, Mo.) in 1 mM CaCl2, 100 mM Tris HCL, pH 7.2. Reactions were incubated at 37° C., 250 rpm for 18 h. Reactions were stopped by the addition of 100 μL 0.12 M EDTA, undigested substrate removed through centrifugation and the absorbance at 495 nm measured.

Row | Structure (SMILES) | elastase activity in supernatant restored by exogenous signal (MW1, 0.3 μM (half-maximal) 3-oxo-C12-HSL alone) | elastase activity in supernatant restored by exogenous signal (MW1, saturating 3-oxo-C12-HSL (25 μM) in addition to saturating C4-HSL (25 μM)) | elastase activity in supernatant restored by exogenous signal (MW1, 25 μM C4-HSL added to 0.3 μM 3-oxo-C12-HSL)
1 | CCCCCCCCCC(=O)CC(=O)NC1CCOC1=O (stereo not drawn) [3-oxo-C12-HSL, 3-oxo-dodecanoyl homoserine lactone] | restored about one third of the achievable activity | did not increase elastase activity further | 
2 | CCCC(=O)N[C@H]1CCOC1=O [Compound C4-HSL, butyryl homoserine lactone] |  |  | maximal elastase activity was measured
